Each structure is given as a SMILES string.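 Growth conditions: 96-well plates. Treatment: test compound, 48 hours, 5 concentrations. Analysis: linear interpolation between bracketing concentrations; unreached endpoints set to highest concentration. GI50 marks 50% less growth.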 Calls of active or inactive are those of the source. Rule as the data show it: active = GI50 up to about 1.1 µM and inactive = higher.

Some test systems named below: SF-268; U-251; SF-295; SK-OV-3; EKVX; HCT-116; SK-MEL-2; A549; HOP-62; MOLT-4; IGROV-1; HT-29; KM12; CAKI-1; OVCAR-3; SN12C; OVCAR-5; COLO 205; UACC-62; HOP-92.
Holding throughout (experiment): DTP human tumour cell line panel, 48 h

Consider `Clc1nc(Cl)nc(Nc2cccc3ccccc23)n1`, for which the GI50 in the assay on SF-268, in the assay with U-251, in the assay on SF-295, in the assay with SK-OV-3, with EKVX and in the assay on HCT-116 was > 10 µM (inactive) in each case. Moreover, the GI50 in the assay on SK-MEL-2, with A549, with HOP-62, in the assay with MOLT-4, in the assay with IGROV-1 and with HT-29 was > 10 µM (inactive) in each case. In addition, the GI50 (as a rule, the concentration at which growth is held to half of that of the control) was > 10 µM (inactive) in the assay with KM12; > 10 µM (inactive) in the assay on CAKI-1; 0.0436 µM (active) in the assay on OVCAR-3; > 10 µM (inactive) with SN12C; > 10 µM (inactive) in the assay on OVCAR-5; > 10 µM (inactive) with COLO 205. Further, the GI50 with UACC-62 is > 10 µM (inactive).
Turning to `COc1ccc(C(=O)Cc2ccc(Cl)cc2)cc1OC`, the GI50 in the assay with SF-268, in the assay with U-251, with SF-295, with SK-OV-3, in the assay with EKVX and in the assay on HCT-116 was > 100 µM (inactive) each time. Moreover, the GI50 with SK-MEL-2, in the assay with A549, in the assay on HOP-62, with MOLT-4, with IGROV-1 and in the assay on HT-29 was > 100 µM (inactive) in each case. In addition, the GI50 with CAKI-1, with OVCAR-3, in the assay with SN12C, in the assay with OVCAR-5 and in the assay on UACC-62 was > 100 µM (inactive) in each case.
Take `Cn1ccnc1C(O)(c1nccn1C)c1nccn1C`: the GI50 in the assay on SF-268, in the assay on U-251, with SF-295, in the assay on EKVX, in the assay with HOP-92 and with SK-MEL-2 was > 100 µM (inactive) throughout. For the same compound, the GI50 in the assay on HOP-62, with HT-29, with KM12, in the assay on CAKI-1, in the assay on SN12C and in the assay on OVCAR-5 was > 100 µM (inactive) in each case. Also, the GI50 with COLO 205 was > 100 µM (inactive).
`CCCCP1(=O)C=CC(Cl)=C(C)C1` (stereo not drawn): the GI50 in the assay with SF-268, in the assay on U-251, in the assay on SF-295, with EKVX, in the assay on HCT-116 and in the assay on HOP-92 was > 100 µM (inactive) each time. In addition, the GI50 in the assay on SK-MEL-2, in the assay on A549, in the assay with HOP-62, with MOLT-4, in the assay on IGROV-1 and with HT-29 was > 100 µM (inactive) in each case. The GI50 in the assay on KM12, in the assay on OVCAR-3, in the assay on SN12C, with OVCAR-5, in the assay with COLO 205 and in the assay with UACC-62 was > 100 µM (inactive) each time.
Take `c1ccc(/N=C2\S/C(=N\C3CCCCC3)N(C3CCCCC3)\C2=N/c2ccccc2)cc1`: the GI50 in the assay on U-251, in the assay with SF-295, in the assay on SK-OV-3, in the assay on HCT-116, with SK-MEL-2 and in the assay on HOP-62 was > 100 µM (inactive) in each case. Moreover, the GI50 was 37.8 µM (inactive) in the assay with MOLT-4; > 100 µM (inactive) in the assay with IGROV-1; > 100 µM (inactive) in the assay with HT-29; > 100 µM (inactive) in the assay on KM12; > 100 µM (inactive) in the assay on CAKI-1; > 100 µM (inactive) in the assay with OVCAR-3. Further, the GI50 in the assay with SN12C, with OVCAR-5, in the assay on COLO 205 and in the assay on UACC-62 was > 100 µM (inactive) in each case.

For the origin of these results see ChEMBL document CHEMBL1201862, “PubChem BioAssay data set” (2004).
